Test results published in patent publication US20240391931A1 (Bristol-Myers Squibb Company, priority 2021, published 2024).

Columns and labels:
Ba/F3 HER2YVMA cells = assay: Cellular proliferation in Ba/F3 HER2YVMA cells; type: cell-based, murine; conditions: Mus musculus, BaF3, read-out: Ba/F3 YVMA GI50
Procedure: (§1) Engineered lines expressing HER2YVMA and HER2 WT were prepared in HEK293 (human embryonic kidney cells), Ba/F3 (Interleukin 3 (IL3)-dependent murine pro B cell line), and BEAS2B (primary immortalized human bronchial epithelial cell line). Ba/F3, BEAS2B, and HEK293 cells were obtained from the American Type Culture Collection (ATCC, Manassas, VA). Parental Ba/F3 cells were grown in suspension in complete RPMI 1640 supplemented with 10% FBS and 1% P/S and 10 ng/ml interleukin 3 (IL3, Sigma-Aldrich). Hek293 and BEAS2B cells were grown as monolayers in DMEM supplemented with 10% FBS and 1% P/S. All cells were maintained and propagated in a humidified 5% CO2 incubator at 37° C.
(§2) To generate Ba/F3, BEAS2B, and Hek-293 cells engineered with lentivirus to express HER2 WT or HER2YVMA, the cells were transduced with lentiviruses at multiplicity of infection (MOI) of 1 or 10; transduced cells were selected and maintained with G418 ([…]) (Geneticin, Life Technologies, Carlsbad, CA). Ba/F3 engineered cells were subjected to gradual withdrawal of interleukin 3 (IL-3, Sigma-Aldrich). After selection, IL3 independent Ba/F3 HER2YVMA, and BEAS2B HER2YVMA cells were cloned by limiting dilution. Hek293 HER2YVMA cells were used as pool. HER2 and phospho HER2 levels were confirmed by flow cytometery and immunoassay (MSD, Meso-Scale Discovery, Rockville, Maryland).
(§3) Cell proliferation in non-adherent cells was investigated in Ba/F3 parental (IL3-dependent) and in the two IL3 independent cell clones tranduced to express mutant HER2 protein containing the YVMA insertion (Ba/F3 HER2YVMA). Cells were plated in DMEM supplemented with 10% FBS, 1% P/S, and 10 ng/ml IL3 (for parental Ba/F3 only) in 96-well white clear-bottom tissue culture plates (Costar, Sigma-Aldrich) at a starting cell density of 7500 cells. An 8-point standard curve with varying cell densities (starting at 100,000 cells and serially diluting down 2-fold) was prepared for each cell line and read after plating. Compound solutions were prepared in serum free media, and cells were treated as described above for adherent cells. Cell viability was determined by CellTiter Glo (Promega, Madison, WI) after 72 h. The results were converted to cell numbers using a standard curve; growth inhibition (GI50 values) were determined by Graph Pad Prism.
(§4) The results of these experiments show the ability of compounds to inhibit cell growth in HER2 dependent cell lines and a control cell line (Ba/F3 parental) are depicted in Table 4 in the columns titled “G150 (nM)”. Ba/F3 parental results fall under the heading “Ba/F3 parental-G150”, and Ba/F3 HER2YVMA fall under the heading “Ba/F3 YVMA-G150”.

Ba/F3 parental cells = assay: Cellular proliferation in Ba/F3 parental (IL3-dependent) cells; type: cell-based, murine; conditions: Mus musculus, BaF3
Procedure: as §1, §3, §4

HER2YVMA = HER2YVMA (Homo sapiens, UniProt P04626, INS775YVMA); assay: HER2 signaling (pHER2) in Ba/F3-HER2YVMA cells; type: cell-based; parameters: expressed in transfected cells; host or cells: HEK293 (pool), Ba/F3 (clones), BEAS2B (clones); lentiviral vector pCDH-CMV-MCS-EF1-Neo; conditions: read-out: Ba/F3 YVMA pHER2 EC50
Procedure: Cell culture, plasmid cloning, and lentiviral transduction were carried out according to standard procedures. The Human HER2 cDNA construct in pCMV6-Entry for the HER2 wildtype (WT) expression was obtained from Origene. The HER2 cDNA including the 12-nucleotide insertion corresponding to YVMA insertion (HER2YVMA) was codon optimized, synthesized and cloned by GenScript (Piscataway, NJ) in pcDNA3.1. The lentiviral constructs expressing HER2YVMA and HER2 WT were sub-cloned using PCR at System Biosciences (SBI, Mountainview, CA) into lentiviral vectors pCDH-CMV-MCS-EF1-Neo and lentiviral particles were generated.
as §1, §2
Compound treatment of Ba/F3-HER2YVMA suspension cells was done as described with minor modifications. Cells were plated at 300000 cell/well in 96-well round bottom plates in RPMI supplemented with 2% FBS and immediately dosed with compounds serially diluted in media without serum for a final concentration of 1% FBS, 0.1% DMSO. Cells were incubate with compounds for 1.5 hr, and plates were spun at 1500 rpm for 5 mins to remove media without disturbing pellet. Cells were lysed as described above.
HER2 signaling was evaluated using phospho (Tyr1248)/total ErbB2 whole cell lysate MSD plates (Meso-Scale Discovery, Gaithersburg, MD). The phospho HER2 signal was normalized to total HER2 for each sample; results are reported as % DMSO control. The normalized data was fitted using a sigmoidal curve analysis program (Graph Pad Prism version 6) with variable Hill slope to determine EC50 values.
The HER2 signaling results are provided in Table 4, under columns titled “BT474-pHER2 EC50”, “N87-pHER2 EC50”, and “NCI-H1781-pHER2 EC50”. Hek293-HER2YVMA ins fall under the heading “HEKYVMA-pHER2 EC50”, Ba/F3 HER2YVMA fall under the heading “Ba/F3 YVMA-pHER2 EC50” and BEAS2B-HER2YVMA fall under the heading “BEAS2B YVMA-pHER2 EC50”.

Chain of HER2YVMA (P04626 with tags, fused parts or gaps INS775YVMA): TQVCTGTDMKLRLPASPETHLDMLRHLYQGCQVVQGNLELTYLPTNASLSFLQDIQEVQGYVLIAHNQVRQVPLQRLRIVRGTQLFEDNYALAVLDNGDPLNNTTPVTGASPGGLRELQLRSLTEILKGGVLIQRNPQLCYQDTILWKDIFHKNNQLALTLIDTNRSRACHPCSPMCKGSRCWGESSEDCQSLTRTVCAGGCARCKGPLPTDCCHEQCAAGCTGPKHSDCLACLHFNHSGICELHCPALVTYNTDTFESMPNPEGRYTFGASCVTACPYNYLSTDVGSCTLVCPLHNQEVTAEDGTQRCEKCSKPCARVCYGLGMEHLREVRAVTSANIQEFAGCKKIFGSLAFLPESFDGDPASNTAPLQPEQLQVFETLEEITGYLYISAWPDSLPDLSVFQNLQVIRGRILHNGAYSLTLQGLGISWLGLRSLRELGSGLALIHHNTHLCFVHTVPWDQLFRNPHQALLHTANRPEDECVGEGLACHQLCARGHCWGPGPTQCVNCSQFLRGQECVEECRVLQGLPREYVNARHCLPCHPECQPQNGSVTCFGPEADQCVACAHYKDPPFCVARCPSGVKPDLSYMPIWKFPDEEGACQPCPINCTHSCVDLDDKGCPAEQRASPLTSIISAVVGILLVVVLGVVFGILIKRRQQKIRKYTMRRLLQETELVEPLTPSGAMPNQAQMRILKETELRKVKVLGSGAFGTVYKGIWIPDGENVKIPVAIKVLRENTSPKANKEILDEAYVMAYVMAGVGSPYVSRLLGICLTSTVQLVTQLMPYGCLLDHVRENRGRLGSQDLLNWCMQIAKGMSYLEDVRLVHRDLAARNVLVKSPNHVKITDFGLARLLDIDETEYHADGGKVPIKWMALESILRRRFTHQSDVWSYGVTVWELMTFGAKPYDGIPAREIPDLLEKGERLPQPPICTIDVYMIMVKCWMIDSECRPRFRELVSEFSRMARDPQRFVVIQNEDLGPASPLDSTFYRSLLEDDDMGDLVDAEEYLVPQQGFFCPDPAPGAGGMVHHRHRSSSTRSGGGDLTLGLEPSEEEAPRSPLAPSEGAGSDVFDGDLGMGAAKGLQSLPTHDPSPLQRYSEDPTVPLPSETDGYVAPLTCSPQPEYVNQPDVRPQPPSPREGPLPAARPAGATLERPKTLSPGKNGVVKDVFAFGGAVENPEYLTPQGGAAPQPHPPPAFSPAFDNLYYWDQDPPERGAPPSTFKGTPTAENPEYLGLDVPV

Compound | GI50 (Ba/F3 HER2YVMA cells) [nM] | EC50 (HER2YVMA) [nM] | GI50 (Ba/F3 parental cells) [nM]
CN(C)C/C=C/C(=O)N1CCc2c(sc3ncnc(Nc4ccc(Oc5ccc6ncnn6c5)c(Cl)c4)c23)C1 [Compound 5, (E)-1-(4-((4-([1,2,4]triazolo[1,5-a]pyridin-6-yloxy)-3-chlorophenyl)amino)-5,8-dihydropyrido[4′,3′:4,5]thieno[2,3-d]pyrimidin-7(6H)-yl)-4-(dimethylamino)but-2-en-1-one] |  | < 100 | 
Cc1ccc(Oc2ccc(Nc3ncnc4sc5c(c34)CCN(C(=O)/C=C/CN3CC4C(CO)C4C3)C5)cc2C)cn1 (stereo not shown) [Compound 34] | < 100 | < 100 | 1000 to 10000
COc1ccc(Oc2ccc(Nc3ncnc4sc5c(c34)CCN(C(=O)/C=C/CN(C)C)C5)cc2C)cn1 [Compound 95, (E)-4-(Dimethylamino)-1-(4-((4-((6-methoxypyridin-3-yl)oxy)-3-methylphenyl)amino)-5,6-dihydropyrido[4′,3′:4,5]thieno[2,3-d]pyrimidin-7(8H)-yl)but-2-en-1-one] | < 100 |  | 1000 to 10000
Cc1ccc(Oc2ccc(Nc3ncnc4sc5c(c34)CN(C(=O)/C=C/CN(C)C)C5)cc2C)cn1 [Compound 99, (E)-4-(dimethylamino)-1-(4-((3-methyl-4-((6-methylpyridin-3-yl)oxy)phenyl)amino)-5,7-dihydro-6H-pyrrolo[3′,4′:4,5]thieno[2,3-d]pyrimidin-6-yl)but-2-en-1-one] | < 100 |  | 1000 to 10000

More lines, main results first:

GI50 (Ba/F3 HER2YVMA cells) [nM] | EC50 (HER2YVMA) [nM] | Compound | GI50 (Ba/F3 parental cells) [nM]
< 100 |  | Cc1ccc(Oc2ccc(Nc3ncnc4sc5c(c34)C(C)CN(C(=O)C=CCN(C)C)C5)cc2C)cn1 (single isomer, unassigned) [Compound 106] | 1000 to 10000
< 100 | < 100 | Cc1ccc(Oc2ccc(Nc3ncnc4sc5c(c34)CCN(C(=O)/C=C/CN(C)C(C)(C)C)C5)cc2C)cn1 [Compound 33] | 1000 to 10000
